Assay results reported in patent publication US20260085058A1, “DEGRADERS OF SON OF SEVENLESS HOMOLOG 1” (H. LEE MOFFITT CANCER CENTER AND RESEARCH INSTITUTE, INC., priority 2022, published 2026).

Target: T1, SOS1 (Homo sapiens, UniProt Q07889)
T1 sequence (Q07889 1-1333): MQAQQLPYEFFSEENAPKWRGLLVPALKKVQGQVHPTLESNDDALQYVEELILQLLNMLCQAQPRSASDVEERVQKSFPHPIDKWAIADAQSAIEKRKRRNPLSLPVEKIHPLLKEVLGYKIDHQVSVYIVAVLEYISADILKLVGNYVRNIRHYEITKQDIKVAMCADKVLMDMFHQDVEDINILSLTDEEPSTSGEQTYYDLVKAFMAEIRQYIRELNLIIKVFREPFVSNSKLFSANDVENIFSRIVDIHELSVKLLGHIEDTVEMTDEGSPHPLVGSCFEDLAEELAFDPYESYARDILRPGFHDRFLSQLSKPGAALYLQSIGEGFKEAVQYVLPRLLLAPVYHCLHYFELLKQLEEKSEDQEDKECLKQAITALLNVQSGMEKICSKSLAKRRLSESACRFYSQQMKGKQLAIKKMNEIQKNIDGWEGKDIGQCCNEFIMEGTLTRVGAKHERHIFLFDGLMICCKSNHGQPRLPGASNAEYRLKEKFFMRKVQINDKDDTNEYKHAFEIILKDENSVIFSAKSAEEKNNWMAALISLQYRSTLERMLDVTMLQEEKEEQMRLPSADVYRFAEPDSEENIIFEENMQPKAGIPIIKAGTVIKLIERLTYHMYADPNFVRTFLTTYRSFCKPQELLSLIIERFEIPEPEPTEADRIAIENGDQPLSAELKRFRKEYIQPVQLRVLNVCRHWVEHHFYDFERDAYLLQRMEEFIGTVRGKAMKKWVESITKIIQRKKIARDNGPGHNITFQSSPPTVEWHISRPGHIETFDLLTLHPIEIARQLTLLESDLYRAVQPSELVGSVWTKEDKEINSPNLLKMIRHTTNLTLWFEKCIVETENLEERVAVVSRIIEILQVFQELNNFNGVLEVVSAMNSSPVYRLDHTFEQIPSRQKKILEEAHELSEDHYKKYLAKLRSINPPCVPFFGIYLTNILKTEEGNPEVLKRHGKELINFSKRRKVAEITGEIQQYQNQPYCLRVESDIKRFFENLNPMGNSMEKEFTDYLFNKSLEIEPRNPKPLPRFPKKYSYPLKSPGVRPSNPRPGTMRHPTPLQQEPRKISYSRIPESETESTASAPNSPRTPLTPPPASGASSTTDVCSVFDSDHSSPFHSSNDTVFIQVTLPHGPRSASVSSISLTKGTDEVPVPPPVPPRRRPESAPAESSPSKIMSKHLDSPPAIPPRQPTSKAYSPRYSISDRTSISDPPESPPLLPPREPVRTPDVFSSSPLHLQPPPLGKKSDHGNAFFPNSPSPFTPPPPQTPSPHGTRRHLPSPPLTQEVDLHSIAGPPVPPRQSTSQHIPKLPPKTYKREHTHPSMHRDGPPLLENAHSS
Assay: SOS1 degradation by immunoblot in colorectal cancer cell lines
Format: cell-based
Set-up: endogenous in cells; host or cells: SW620, HCT116, C2BB, SW1417
Protocol: SW620, HCT116, C2BB, and SW1417 were purchased from the American Type Culture Collection. […] They were incubated under a 5% (v/v) CO2 atmosphere at 37° C.
Cells were plated in a 100 mm dish for incubation overnight before harvest for immunoblot. For drug treatment, cell confluency was checked prior to proceeding with the treatment. […] Approximately 40 μg protein samples were loaded into each well and separated by SDS-PAGE gel. After protein transfer onto nitrocellulose membranes, 5% skim milk in TBST was used to block the membranes for 1 hour at room temperature prior to incubation with primary antibodies overnight at 4° C. At the completion, a horseradish peroxidase-conjugated secondary antibody was applied at room temperature for 1 hour. The bands were visualized using Western Lightning Plus-ECL (PerkinElmer).

SMILES: COc1cc2c(N[C@H](C)c3cc(N)cc(C(F)(F)F)c3)nc(C)nc2cc1OCC(=O)Nc1cccc2c1CN(C1CCC(=O)NC1=O)C2=O (stereo partly drawn) [P7, 2-((4-(((R)-1-(3-amino-S-(trifluoromethyl)phenyl)ethyl)amino)-6-methoxy-2-methylquinazolin-7-yl)oxy)-N-(2-(2,6-dioxopiperidin-3-yl)-1-oxoisoindolin-4-yl)acetamide]
- SOS1 degradation in other CRC cell lines (HCT116, C2BB and SW1417 cells, different concentrations, 24 hours): concentration-dependent
- SOS1 degradation after cycloheximide pretreatment (SW620 cells pre-treated with cycloheximide 100 μg/mL for 1 hour, then 1 μM P7, starting at 3 hours and sustained): more than 75%
- SOS1 degradation by P7 after pretreatment with competitors/pathway inhibitors (SW620 cells pretreated 1 hour with BI3406 10 μM, lenalidomide 10 μM, MLN4924 0.5 μM or MG132, then P7 1 μM 24 h): lack of significant SOS1 degradation
- SOS1 degradation (SW620 cells, 1 μM, 6 hours, immunoblot): 64%
- SOS1 degradation (SW620 cells, 1 μM, 48 hours, immunoblot): 92%
- Time-dependent SOS1 degradation (SW620 cells, 1 μM, different time points): time-dependent
- SOS1 degradation compared to SOS1 inhibitor BI3406 and siRNA of SOS1 (SW620 cells, 6 hours, immunoblot): comparable with that by genetic knockdown
- SOS1 degradation (up to) (maximal degradation reported, CRC cell lines and PDOs): up to 92%
